# “Also recorded” adds a separate entry of the source.
# Key:
# [1] = system: AF9, AFF4, cyclin-T1 and H3K79me2; assay: ChIP-qPCR, AF9, AFF4, cyclin-T1 and H3K79me2 at gene promoters of Myc and HoxA9; assay type: cell-based; settings: MV4;11 cells, 500 nM, 4 days
# Experimental: Chromatin immunoprecipitation (ChIP) followed by qPCR was used to further probe the activity of compound 1 in the gene promoters of Myc and HoxA9, two characteristic MLL1 target genes.
# Upon treatment with a compound for 4 days, 10^7 MV4;11 cells were cross-linked with 1% formaldehyde at room temperature for 10 min, followed by the addition of 125 mM glycine. Cells were lysed with nuclear lysis buffer and sonicated to ~ 100–1000 bp fragments, which was incubated at 4 °C overnight with an antibody and IgG (C15410206, Diagenode). Protein A/G Magnetic Beads (10 µL, Novus Biologicals) were added and incubated for 2 h. The beads were washed 3 × with RIPA buffer and 2 × with TE buffer. DNA on the beads was eluted for 2 h at 68 °C in 100 μL of an elution buffer (20 mM Tris pH 7.5, 5 mM EDTA, 50 mM NaCl, 1% SDS, 50 μg/mL proteinase K) (2 ×), and purified using a ChIP DNA Clean & Concentrator kit (Novus Biologicals). qPCR was done using the method described above.
# HoxA9, Meis1 and Myc = assay: qPCR expression of HoxA9, Meis1 and Myc in Molm-13 cells; assay type: cell-based; settings: 4 days
# Experimental: Previous studies show ENL is required for expression of MLL1-target genes in MLL1-r leukemia. How compound 1-mediated ENL degradation changes expression of HoxA9, Meis1 and Myc, three characteristic genes in MLL1-r leukemia, was examined. Molm-13 cells were treated with compound 1 for 4 days, after which the RNAs were extracted and analyzed.
# 10^5 cells/mL were incubated with a compound for 4 days and the RNA was extracted using RNeasy mini kit (#74104, Qiagen). 100–1000 ng of total RNA was reverse transcribed using iScript™ Reverse Transcription Supermix (Bio-Rad) using the manufacturer’s protocol. Quantitative real-time PCR was carried out using Fast SYBR Green Master Mix (Applied Biosystems) according to the manufacturer’s instructions. Measurements were performed in triplicate, using GAPDH as the reference gene. Real-time PCR was performed using Biosystems Step One Plus detection system. The following sequences of primers are used: • MYC (forward: 5′-[…]-3′; reverse: 5′-[…]-3′); • HoxA9 (forward: 5′-[…]-3′; reverse: 5′-[…]-3′); • Meis1 (forward: 5′-[…]-3′; reverse: 5′-[…]-3′); • GAPDH (forward: 5′-[…]-3′; reverse: 5′-[…]-3′).
# [2] = In vivo toxicity in C57BL/6 mice; settings: 30 mg/kg/day for 13 days
# Experimental: In vivo antitumor activity of compound 1 was evaluated in a commonly used mouse model of Molm-13 leukemia. First, in vivo toxicity was assessed in C57BL/6 mice. […] Next, 10^6 Molm-13 cells were injected subcutaneously into NOD-SCID mice, which developed palpable tumors in ~ 1 week and grew rapidly.
# ENL [3] = molecular target: T1, ENL (Homo sapiens, UniProt Q03111); assay: ENL degradation in MV4;11 cells (Western blot); assay type: cell-based; design: endogenous in cells; host or cells: MV4;11; settings: 24 h
# T1 sequence (Q03111 1-559): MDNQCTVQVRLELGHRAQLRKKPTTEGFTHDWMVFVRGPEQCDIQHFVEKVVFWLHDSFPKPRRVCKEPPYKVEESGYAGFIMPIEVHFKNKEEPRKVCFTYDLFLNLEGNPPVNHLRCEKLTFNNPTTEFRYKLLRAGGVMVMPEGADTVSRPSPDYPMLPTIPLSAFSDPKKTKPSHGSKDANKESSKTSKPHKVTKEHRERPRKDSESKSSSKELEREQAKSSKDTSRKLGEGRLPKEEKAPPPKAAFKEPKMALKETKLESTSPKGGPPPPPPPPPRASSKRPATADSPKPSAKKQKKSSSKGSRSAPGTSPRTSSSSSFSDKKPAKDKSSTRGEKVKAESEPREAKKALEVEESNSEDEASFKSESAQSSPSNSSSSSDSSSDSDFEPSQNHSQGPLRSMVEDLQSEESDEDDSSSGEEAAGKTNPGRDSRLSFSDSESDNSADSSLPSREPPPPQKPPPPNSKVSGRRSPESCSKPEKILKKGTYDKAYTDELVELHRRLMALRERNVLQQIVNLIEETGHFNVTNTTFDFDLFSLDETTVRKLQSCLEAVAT
# Experimental: We next tested whether these compounds degrade ENL and AF9 in MV4;11 leukemia cells with the MLL1-AF4 oncogene. Upon compound treatment for 24 h, the cells were washed, lysed, and the lysates subjected to SDS-PAGE (sodium dodecyl sulfate–polyacrylamide gel electrophoresis) followed by detection with Western blot.
# 3 × 10^6 cells/well were treated with increasing concentrations of a compound for 1 day, and whole proteins were extracted. Equal amounts of proteins were separated on SDS-PAGE and transferred to PVDF membranes. The blots were probed with primary antibodies, followed by anti-rabbit IgG (Thermo Scientific) secondary antibodies. The primary antibodies against ENL (Cell signaling #14893), AF9 (Novusbio #NB100-1565), DOT1L (Cell signaling #77087), AFF4 (Abcam #ab103586), Cyclin T1 (Cell signaling #81464), H3K79me2 (Cell signaling #5427), H3K79me1 (Cell signaling #9398), Histone H3 (Cell signaling #4499), FLAG (Sigma-Aldrich #F1804), β-Actin (Cell signaling #4970) were used in this study.
# ENL [4] = molecular target: T1, ENL; assay: ENL in nucleus and cytoplasm of MV4;11 cells (Western blot); assay type: cell-based; design: endogenous in cells; host or cells: MV4;11; settings: 4 days
# Experimental: Upon treatment of MV4;11 cells with these compounds for 4 days, cytoplasmic and nuclear proteins were separated and subjected to SDS-PAGE/Western blot.
# 3 × 10^6 cells/well were treated with increasing concentrations of a compound for 1 day, and whole proteins were extracted. Equal amounts of proteins were separated on SDS-PAGE and transferred to PVDF membranes. The blots were probed with primary antibodies, followed by anti-rabbit IgG (Thermo Scientific) secondary antibodies.
# ENL [5] = molecular target: T1, ENL; assay: ENL degradation in MV4;11 cells (Western blot); assay type: cell-based; design: endogenous in cells; host or cells: MV4;11; settings: 500 nM
# AF9 YEATS = molecular target: T2, AF9 YEATS (Homo sapiens, UniProt P42568); assay: ALPHA assay, inhibition of the AF9 YEATS-H3K27ac interaction
# T2 sequence (P42568 1-138 limits assumed): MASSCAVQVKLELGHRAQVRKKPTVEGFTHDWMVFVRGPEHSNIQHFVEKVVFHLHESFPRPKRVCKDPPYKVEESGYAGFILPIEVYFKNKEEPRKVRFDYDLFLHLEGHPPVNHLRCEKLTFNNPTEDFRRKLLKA
# From the text: AlphaScreen binding assay was developed using Perkin-Elmer AlphaScreen Histidine (Nickel Chelate) Detection Kit, following a reported protocol [39]. Data were imported into Prism (version 5.0), and IC50 values from 3 independent experiments with standard deviation were obtained by using a standard dose–response curve fitting.
compound,measurement,setting,value
C[C@H]1CCCN1Cc1nc2cc(NC(=O)c3ccc4c(cnn4CCCCCCCCNc4cccc5c4C(=O)N(C4CCC(=O)NC4=O)C5=O)c3)ccc2[nH]1 (stereo partly shown) [Compound 1],"AF9, AFF4, cyclin-T1 and H3K79me2 at gene promoters of Myc and HoxA9",[1],did not significantly lower down
same,"Expression of HoxA9, Meis1 and Myc","HoxA9, Meis1 and Myc",significantly inhibit expression
same,Body weight,[2],did not cause significant weight losses
same,Hematopoiesis and overt toxicities,[2],did not inhibit normal hematopoiesis or cause other overt toxicities
same,Blood cell counts versus control,"[2]; blood test on day-14, 30 mg/kg/day",no significant changes; also recorded: no significant differences
same,Dmax,"ENL [3]; MV4-11, MV4;11 cells, read-out: Dmax (maximal degradation) of ENL",~95%
same,Concentration of maximal ENL-degrading activity (hook effect above),ENL [3]; MV4;11 cells,~ 500 nM
same,DC50,"ENL [3]; MV4;11 cells, read-out: DC50 (concentration at which a protein is reduced by 50%) of ENL",37 nM
same,ENL level in the cytoplasmic extract,ENL [4],significantly reduced
same,ENL level in the nucleus,ENL [4]; compound 1 at 500 nM,almost depleted
same,Time at which significant ENL degradation can be detected,ENL [5],2 h
same,Time to ENL depletion,ENL [5],≤ 24 h
same,IC50,AF9 YEATS,750 ± 15 nM

# Source: paper PMC8994274, “A proteolysis-targeting chimera molecule selectively degrades ENL and inhibits malignant gene expression and tumor growth” (Journal of Hematology & Oncology, 2022)
